For twelve compounds, IC50 results are on record in patent US20260022142A1, “MACROCYCLIC IMMUNOMODULATORS” (Bristol-Myers Squibb Company, priority 2022, published 2026).

SMILES strings stand for the structures. Bridge positions count the residues as written; N and C are the ends. Square brackets hold non-standard residues; d marks the D form. Peptide text beside a SMILES is read from it. * marks the point of attachment. Tyr(3,5-F2) = N[C@@H](Cc1cc(F)c(O)c(F)c1)C(=O)O; Phe(4-CONH2) = NC(=O)c1ccc(C[C@H](N)C(=O)O)cc1; Bip = N[C@@H](Cc1ccc(-c2ccccc2)cc1)C(=O)O; Phe(3-OMe) = COc1cccc(C[C@H](N)C(=O)O)c1; Phe(4-CN) = N#Cc1ccc(C[C@H](N)C(=O)O)cc1; Phe(3-F) = N[C@@H](Cc1cccc(F)c1)C(=O)O; Phe(3-Me) = Cc1cccc(C[C@H](N)C(=O)O)c1; Phe(4-Me) = Cc1ccc(C[C@H](N)C(=O)O)cc1; Phe(2-F) = N[C@@H](Cc1ccccc1F)C(=O)O; Phe(2-Me) = Cc1ccccc1C[C@H](N)C(=O)O; Val(3-OH) = CC(C)(O)[C@H](N)C(=O)O; 4Pal = N[C@@H](Cc1ccncc1)C(=O)O; 2Thi = N[C@@H](Cc1cccs1)C(=O)O; Cha = N[C@@H](CC1CCCCC1)C(=O)O; Gly(cPr) = N[C@H](C(=O)O)C1CC1; Phg = N[C@H](C(=O)O)c1ccccc1; Carboxymethyl = O=C(O)C*; Orn = NCCC[C@H](N)C(=O)O; Aun = NCCCCCCCCCCC(=O)O; Dab = NCC[C@H](N)C(=O)O

The assay deals with T1, PD-1/PD-L1 interaction (PE-labeled human PD-L1-Ig binding to Jurkat cell line over-expressing human PD-1) (Homo sapiens, UniProt Q15116).
T1 construct: expressed in transfected cells; host or cells: Jurkat
T1 sequence (Q15116 25-288): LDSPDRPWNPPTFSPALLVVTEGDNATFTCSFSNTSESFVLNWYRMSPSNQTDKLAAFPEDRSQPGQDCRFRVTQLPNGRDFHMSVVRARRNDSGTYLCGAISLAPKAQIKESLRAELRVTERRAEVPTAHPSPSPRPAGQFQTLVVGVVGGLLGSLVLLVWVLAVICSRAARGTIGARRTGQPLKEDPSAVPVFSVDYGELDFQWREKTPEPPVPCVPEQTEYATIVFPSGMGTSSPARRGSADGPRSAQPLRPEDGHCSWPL
Briefly: Jurkat-PD-1 Cell Binding High-Content Screening Assay (CBA). As to conditions: Jurkat cell line over-expressing human PD-1; PE-labeled PD-L1-Ig 20 nM final; read-out: Jurkat hPD1-PDL1 IC50. The format is cell-based. The essentials:
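Jurkat cells stably over-expressing human PD-1 were seeded in DMEM with 10% fetal calf serum and pre-incubated with compound for 2 h at 37° C. PE-labeled human PD-L1-Ig was then added at 20 nM final for 1 hour, after which cells were fixed with paraformaldehyde, Hoechst-stained and imaged by high-content microscopy.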
One may read the IC50 as the point on the concentration scale where inhibition reaches its midpoint. In the case of `Cc1cccc(C[C@@H]2NC(=O)[C@H](CC(=O)O)NC(=O)[C@H](Cc3ccc(OCC(=O)O)cc3)NC(=O)[C@H](Cc3ccc(C#N)cc3)NC(=O)CSC[C@@H](C(=O)N[C@@H](CCN)C(=O)NCCCCCCCCCCC(=O)O)NC(=O)[C@H](CO)NC(=O)[C@H](C(C)(C)O)NC(=O)[C@H](CC3CCCCC3)NC(=O)[C@H](CCN)NC(=O)[C@@H](CC(C)C)NC(=O)[C@H](CCCN)NC(=O)[C@H](Cc3ccc(OCC(=O)O)cc3)NC(=O)[C@H](Cc3ccc(-c4ccccc4)cc3)NC(=O)[C@H](Cc3ccc(OCC(=O)O)cc3)NC2=O)c1` [Compound 2183] ({CH2CO}-[Phe(4-CN)]Y(Carboxymethyl)D[Phe(3-Me)]Y(Carboxymethyl)[Bip]Y(Carboxymethyl)[Orn][dL][Dab][Cha][Val(3-OH)]SC[Dab][Aun]-OH; thioether N-14), the IC50 came out at 13.3 nM. With `Cc1cccc(C[C@@H]2NC(=O)[C@H](CC(=O)O)NC(=O)[C@H](Cc3ccc(OCC(=O)O)cc3)NC(=O)[C@H](Cc3ccncc3)NC(=O)CSC[C@@H](C(=O)N[C@@H](CCN)C(=O)NCCCCCCCCCCC(=O)O)NC(=O)[C@H](CO)NC(=O)[C@H](C(C)(C)O)NC(=O)[C@H](CC3CCCCC3)NC(=O)[C@H](CCN)NC(=O)[C@@H](CC(C)C)NC(=O)[C@H](CCCN)NC(=O)[C@H](Cc3ccc(OCC(=O)O)cc3)NC(=O)[C@H](Cc3ccc(-c4ccccc4)cc3)NC(=O)[C@H](Cc3ccccc3F)NC2=O)c1` [Compound 2184] ({CH2CO}-[4Pal]Y(Carboxymethyl)D[Phe(3-Me)][Phe(2-F)][Bip]Y(Carboxymethyl)[Orn][dL][Dab][Cha][Val(3-OH)]SC[Dab][Aun]-OH; thioether N-14), the IC50 came out at 10.3 nM. The result for `Cc1cccc(C[C@@H]2NC(=O)[C@H](CC(=O)O)NC(=O)[C@H](Cc3ccc(OCC(=O)O)cc3)NC(=O)[C@H](Cc3ccncc3)NC(=O)CSC[C@@H](C(=O)N[C@@H](CCN)C(=O)NCCCCCCCCCCC(=O)O)NC(=O)[C@H](CO)NC(=O)[C@H](C(C)(C)O)NC(=O)[C@H](CC3CCCCC3)NC(=O)[C@H](CCN)NC(=O)[C@@H](CC(C)C)NC(=O)[C@H](CCCN)NC(=O)[C@H](Cc3ccc(OCC(=O)O)cc3)NC(=O)[C@H](Cc3ccc(-c4ccccc4)cc3)NC(=O)[C@H](Cc3cc(F)c(O)c(F)c3)NC2=O)c1` [Compound 2185] ({CH2CO}-[4Pal]Y(Carboxymethyl)D[Phe(3-Me)][Tyr(3,5-F2)][Bip]Y(Carboxymethyl)[Orn][dL][Dab][Cha][Val(3-OH)]SC[Dab][Aun]-OH; thioether N-14) reads 9.6 nM. Turning to `COc1cccc(C[C@@H]2NC(=O)[C@H](Cc3cccc(C)c3)NC(=O)[C@H](CC(=O)O)NC(=O)[C@H](Cc3ccc(OCC(=O)O)cc3)NC(=O)[C@H](Cc3ccncc3)NC(=O)CSC[C@@H](C(=O)N[C@@H](CCN)C(=O)NCCCCCCCCCCC(=O)O)NC(=O)[C@H](CO)NC(=O)[C@H](C(C)(C)O)NC(=O)[C@H](CC3CCCCC3)NC(=O)[C@H](CCN)NC(=O)[C@@H](CC(C)C)NC(=O)[C@H](CCCN)NC(=O)[C@H](Cc3ccc(OCC(=O)O)cc3)NC(=O)[C@H](Cc3ccc(-c4ccccc4)cc3)NC2=O)c1` [Compound 2186] ({CH2CO}-[4Pal]Y(Carboxymethyl)D[Phe(3-Me)][Phe(3-OMe)][Bip]Y(Carboxymethyl)[Orn][dL][Dab][Cha][Val(3-OH)]SC[Dab][Aun]-OH; thioether N-14), the IC50 amounted to 14 nM. With `Cc1cccc(C[C@@H]2NC(=O)[C@H](CC(=O)O)NC(=O)[C@H](Cc3ccc(OCC(=O)O)cc3)NC(=O)[C@H](Cc3ccncc3)NC(=O)CSC[C@@H](C(=O)N[C@@H](CCN)C(=O)NCCCCCCCCCCC(=O)O)NC(=O)[C@H](CO)NC(=O)[C@H](C(C)(C)O)NC(=O)[C@H](CC3CCCCC3)NC(=O)[C@H](CCN)NC(=O)[C@@H](CC(C)C)NC(=O)[C@H](CCCN)NC(=O)[C@H](Cc3ccc(OCC(=O)O)cc3)NC(=O)[C@H](Cc3ccc(-c4ccccc4)cc3)NC(=O)[C@H](C(C)(C)O)NC2=O)c1` [Compound 2187] ({CH2CO}-[4Pal]Y(Carboxymethyl)D[Phe(3-Me)][Val(3-OH)][Bip]Y(Carboxymethyl)[Orn][dL][Dab][Cha][Val(3-OH)]SC[Dab][Aun]-OH; thioether N-14), the IC50 was 31.3 nM. Take `Cc1cccc(C[C@@H]2NC(=O)[C@H](CC(=O)O)NC(=O)[C@H](Cc3ccc(OCC(=O)O)cc3)NC(=O)[C@H](Cc3ccncc3)NC(=O)CSC[C@@H](C(=O)N[C@@H](CCN)C(=O)NCCCCCCCCCCC(=O)O)NC(=O)[C@H](CO)NC(=O)[C@H](C(C)(C)O)NC(=O)[C@H](CC3CCCCC3)NC(=O)[C@H](CCN)NC(=O)[C@@H](CC(C)C)NC(=O)[C@H](CCCN)NC(=O)[C@H](Cc3ccc(OCC(=O)O)cc3)NC(=O)[C@H](Cc3ccc(-c4ccccc4)cc3)NC(=O)[C@H](Cc3cccs3)NC2=O)c1` [Compound 2188] ({CH2CO}-[4Pal]Y(Carboxymethyl)D[Phe(3-Me)][2Thi][Bip]Y(Carboxymethyl)[Orn][dL][Dab][Cha][Val(3-OH)]SC[Dab][Aun]-OH; thioether N-14): the IC50 is 9.4 nM. Take `Cc1cccc(C[C@@H]2NC(=O)[C@H](CC(=O)O)NC(=O)[C@H](Cc3ccc(OCC(=O)O)cc3)NC(=O)[C@H](Cc3ccncc3)NC(=O)CSC[C@@H](C(=O)N[C@@H](CCN)C(=O)NCCCCCCCCCCC(=O)O)NC(=O)[C@H](CO)NC(=O)[C@H](C(C)(C)O)NC(=O)[C@H](CC3CCCCC3)NC(=O)[C@H](CCN)NC(=O)[C@@H](CC(C)C)NC(=O)[C@H](CCCN)NC(=O)[C@H](Cc3ccc(OCC(=O)O)cc3)NC(=O)[C@H](Cc3ccc(-c4ccccc4)cc3)NC(=O)[C@H](C3CC3)NC2=O)c1` [Compound 2189] ({CH2CO}-[4Pal]Y(Carboxymethyl)D[Phe(3-Me)][Gly(cPr)][Bip]Y(Carboxymethyl)[Orn][dL][Dab][Cha][Val(3-OH)]SC[Dab][Aun]-OH; thioether N-14): the IC50 came out at 18.2 nM. The result for `Cc1ccc(C[C@@H]2NC(=O)[C@H](Cc3cccc(C)c3)NC(=O)[C@H](CC(=O)O)NC(=O)[C@H](Cc3ccc(OCC(=O)O)cc3)NC(=O)[C@H](Cc3ccncc3)NC(=O)CSC[C@@H](C(=O)N[C@@H](CCN)C(=O)NCCCCCCCCCCC(=O)O)NC(=O)[C@H](CO)NC(=O)[C@H](C(C)(C)O)NC(=O)[C@H](CC3CCCCC3)NC(=O)[C@H](CCN)NC(=O)[C@@H](CC(C)C)NC(=O)[C@H](CCCN)NC(=O)[C@H](Cc3ccc(OCC(=O)O)cc3)NC(=O)[C@H](Cc3ccc(-c4ccccc4)cc3)NC2=O)cc1` [Compound 2190] ({CH2CO}-[4Pal]Y(Carboxymethyl)D[Phe(3-Me)][Phe(4-Me)][Bip]Y(Carboxymethyl)[Orn][dL][Dab][Cha][Val(3-OH)]SC[Dab][Aun]-OH; thioether N-14) reads 19.6 nM; that for `Cc1cccc(C[C@@H]2NC(=O)[C@H](CC(=O)O)NC(=O)[C@H](Cc3ccc(OCC(=O)O)cc3)NC(=O)[C@H](Cc3ccncc3)NC(=O)CSC[C@@H](C(=O)N[C@@H](CCN)C(=O)NCCCCCCCCCCC(=O)O)NC(=O)[C@H](CO)NC(=O)[C@H](C(C)(C)O)NC(=O)[C@H](CC3CCCCC3)NC(=O)[C@H](CCN)NC(=O)[C@@H](CC(C)C)NC(=O)[C@H](CCCN)NC(=O)[C@H](Cc3ccc(OCC(=O)O)cc3)NC(=O)[C@H](Cc3ccc(-c4ccccc4)cc3)NC(=O)[C@H](c3ccccc3)NC2=O)c1` [Compound 2191] ({CH2CO}-[4Pal]Y(Carboxymethyl)D[Phe(3-Me)][Phg][Bip]Y(Carboxymethyl)[Orn][dL][Dab][Cha][Val(3-OH)]SC[Dab][Aun]-OH; thioether N-14), 20 nM; that for `Cc1cccc(C[C@@H]2NC(=O)[C@H](CC(=O)O)NC(=O)[C@H](Cc3ccc(OCC(=O)O)cc3)NC(=O)[C@H](Cc3ccncc3)NC(=O)CSC[C@@H](C(=O)N[C@@H](CCN)C(=O)NCCCCCCCCCCC(=O)O)NC(=O)[C@H](CO)NC(=O)[C@H](C(C)(C)O)NC(=O)[C@H](CC3CCCCC3)NC(=O)[C@H](CCN)NC(=O)[C@@H](CC(C)C)NC(=O)[C@H](CCCN)NC(=O)[C@H](Cc3ccc(OCC(=O)O)cc3)NC(=O)[C@H](Cc3ccc(-c4ccccc4)cc3)NC(=O)[C@H](Cc3ccc(C(N)=O)cc3)NC2=O)c1` [Compound 2192] ({CH2CO}-[4Pal]Y(Carboxymethyl)D[Phe(3-Me)][Phe(4-CONH2)][Bip]Y(Carboxymethyl)[Orn][dL][Dab][Cha][Val(3-OH)]SC[Dab][Aun]-OH; thioether N-14), 7.7 nM. For `Cc1cccc(C[C@@H]2NC(=O)[C@H](CC(=O)O)NC(=O)[C@H](Cc3ccc(OCC(=O)O)cc3)NC(=O)[C@H](Cc3ccncc3)NC(=O)CSC[C@@H](C(=O)N[C@@H](CCN)C(=O)NCCCCCCCCCCC(=O)O)NC(=O)[C@H](CO)NC(=O)[C@H](C(C)(C)O)NC(=O)[C@H](CC3CCCCC3)NC(=O)[C@H](CCN)NC(=O)[C@@H](CC(C)C)NC(=O)[C@H](CCCN)NC(=O)[C@H](Cc3ccc(OCC(=O)O)cc3)NC(=O)[C@H](Cc3ccc(-c4ccccc4)cc3)NC(=O)[C@H](Cc3ccccc3C)NC2=O)c1` [Compound 2193] ({CH2CO}-[4Pal]Y(Carboxymethyl)D[Phe(3-Me)][Phe(2-Me)][Bip]Y(Carboxymethyl)[Orn][dL][Dab][Cha][Val(3-OH)]SC[Dab][Aun]-OH; thioether N-14), the IC50 is 21.7 nM. To `Cc1cccc(C[C@@H]2NC(=O)[C@H](CC(=O)O)NC(=O)[C@H](Cc3ccc(OCC(=O)O)cc3)NC(=O)[C@H](Cc3ccncc3)NC(=O)CSC[C@@H](C(=O)N[C@@H](CCN)C(=O)NCCCCCCCCCCC(=O)O)NC(=O)[C@H](CO)NC(=O)[C@H](C(C)(C)O)NC(=O)[C@H](CC3CCCCC3)NC(=O)[C@H](CCN)NC(=O)[C@@H](CC(C)C)NC(=O)[C@H](CCCN)NC(=O)[C@H](Cc3ccc(OCC(=O)O)cc3)NC(=O)[C@H](Cc3ccc(-c4ccccc4)cc3)NC(=O)[C@H](Cc3cccc(F)c3)NC2=O)c1` [Compound 2194] ({CH2CO}-[4Pal]Y(Carboxymethyl)D[Phe(3-Me)][Phe(3-F)][Bip]Y(Carboxymethyl)[Orn][dL][Dab][Cha][Val(3-OH)]SC[Dab][Aun]-OH; thioether N-14) belongs 12.9 nM.
